Experimental data: patent US4093574A, “Somatostatin analogs and intermediates thereto” (Eli Lilly and Company, priority 1977, dated 1978)
Where a SMILES comes first, the peptide text is derived from it. Bridges are numbered along the chain shown (N, C = ends). [ ]: non-standard residue; d: D form.

How the values were obtained:
[1] = tested on: gastric HCl secretion induced by the C-terminal tetrapeptide of gastrin; assay: in vivo inhibition of gastric acid secretion in dogs with chronic fistula and Heidenhain pouch
Description: D-Ser^2, D-Trp^8 -somatostatin was tested in dogs for its in vivo inhibition of gastric acid secretion. In six dogs with chronic fistula and Heidenhain pouch, gastric HCl secretion was induced by infusion of the C-terminal tetrapeptide of gastrin at 0.5 μg/kg-hr. Each dog served as its own control, receiving on a separate day only the tetrapeptide. On another day, the six dogs received the tetrapeptide, and, after one hour of steady state secretion of HCl, D-Ser^2, D-Trp^8 -somatostatin was infused at 0.20 μg/kg-hr. for one hour. Collection of gastric acid samples was continued for an additional 1.5 hours at 15 minute intervals. The samples were titrated to pH 7 with an automatic titrator. The maximal inhibitory effect of the D-Ser^2, D-Trp^8 -somatostatin was extrapolated against the dose-response curve of somatostatin, and the relative potency of the analog to that of somatostatin is expressed as percent activity. D-Ser^2, D-Trp^8 -somatostatin inhibited steady state acid secretion induced by the C-terminal tetrapeptide of gastrin by 73.5 ± 4.8% standard error of mean. This effect is equivalent to that of 0.545 μg/kg-hr. of somatostatin. Its activity relative to that of somatostatin thus is 273%.

gut motility = assay: action on gut motility in conscious dogs (intralumenal pressure); type: in vivo; conditions: intravenous infusion over ten minutes, pylorus, duodenum, antrum
Description: D-Ser^2, D-Trp^8 -somatostatin also was tested for its action on gut motility in conscious dogs. Three dogs having intralumenal catheters placed in the antrum, duodenum, and pylorus were used. Pressure changes in the gut lumen were recorded on a Visicorder using strain gauges and miniature light beam galvanometers. After a steady state control was established, D-Ser^2, D-Trp^8 -somatostatin was infused intravenously over a ten minute period. […] This compared to a minimum effective dose of 0.125-0.25 μg./kg.--10 minutes for somatostatin itself.

pancreatic secretion = assay: inhibition of pancreatic secretion in dogs with pancreatic and total gastric fistula; type: in vivo
Description: In three dogs having both pancreatic and total gastric fistula, secretion from the pancreas was induced by infusion of […] at 2 units/kg-hr. and cholecystokinin at 0.45 unit/kg-hr., and gastric HCl by infusion of tetragastrin at 0.5 μg/kg-hr. After a steady response was established, each dog received D-Ser^2, D-Trp^8 -somatostatin for one hour at 0.2 μg/kg-hr. The peak inhibitory effect expressed as percent change over control for total protein was -76%. This corresponds to the inhibitory effect obtained by administration of about 0.6 μg/kg-hr. of somatostatin.

growth hormone secretion = assay: release of growth hormone in sodium pentobarbital-stimulated rats; type: in vivo, male Spraque-Dawley rats; conditions: serum GH at 20 minutes
Description: D-Ser^2, D-Trp^8 -somatostatin also was tested for its activity with respect to the release of growth hormone. The procedure which was employed is carried out using male Spraque-Dawley rats weighing 100-120 grams (Laboratory Supply Company, Indianapolis, Ind.). The test is a modification of the method of P. Brazeau, W. Vale, and R. Guilleman, Endocrinology, 94 184 (1974). In this assay, five groups of eight rats each were employed. Sodium pentobarbital was administered intraperitoneally to all of the rats to stimulate growth hormone secretion. One group served as the control and received only saline. Two of the groups received somatostatin, one at 2 μg./rat, subcutaneously, and the other at 50 μg./rat, subcutaneously. The other two groups received D-Ser^2, D-Trp^8 -somatostatin, one at 2 μg./rat, subcutaneously, and the other at 50 μg./rat, subcutaneously. The serum concentration of growth hormone was measured 20 minutes after simultaneous administration of sodium pentobarbital and test compound. The degree of inhibition of serum growth hormone concentration then was determined with respect to the control group, and the relative activities of D-Ser^2, D-Trp^8 -somatostatin and somatostatin itself were compared. […]

[2] = tested on: glucagon and insulin secretion; assay: in vivo inhibition of glucagon and insulin secretion upon stimulation with L-alanine; set-up: species or system mongrel dogs; conditions: fasted dogs, intravenous infusion
Description: D-Ser^2, D-Trp^8 -somatostatin was tested for its in vivo activity in inhibiting glucagon and insulin secretion upon stimulation with L-alanine. Normal mongrel dogs of either sex were fasted overnight. Control blood samples were obtained, and then an intravenous infusion of saline, somatostatin, or D-Ser^2, D-Trp^8 -somatostatin was started. After 30 minutes, L-alanine additionally was administered intravenously for a period of 15 minutes. The infusion of saline, somatostatin, or D-Ser^2, D-Trp^8 -somatostatin was continued for 15 minutes after completion of the L-alanine infusion. From the above it was determined that the minimal effective concentration of D-Ser^2, D-Trp^8 -somatostatin is about 25 nanograms/kg./min. whereas the minimal effective concentration of somatostatin is about 100 nanograms/kg./min.

C[C@H](N)C(=O)N[C@H](CO)C(=O)N[C@H]1CSSC[C@@H](C(=O)O)NC(=O)[C@H](CO)NC(=O)[C@H]([C@@H](C)O)NC(=O)[C@H](Cc2ccccc2)NC(=O)[C@H]([C@@H](C)O)NC(=O)[C@H](CCCCN)NC(=O)[C@@H](Cc2c[nH]c3ccccc23)NC(=O)[C@H](Cc2ccccc2)NC(=O)[C@H](Cc2ccccc2)NC(=O)[C@H](CC(N)=O)NC(=O)[C@H](CCCCN)NC1=O [D-Ser^2, D-Trp^8 -somatostatin] (H-A[dS]CKNFF[dW]KTFTSC-OH; disulfide 3-14)
dose of somatostatin with equivalent effect on acid secretion ([1]; analog at 0.20 μg/kg-hr., extrapolated against dose-response curve of somatostatin): 0.545 μg/kg-hr.
inhibition of steady state acid secretion induced by the C-terminal tetrapeptide of gastrin ([1]; infused at 0.20 μg/kg-hr. for one hour, ± standard error of mean): 73.5 ± 4.8%
activity relative to that of somatostatin (gastric acid secretion) ([1]; relative potency expressed as percent activity): 273%
effect on intralumenal pressure (gut motility): initially increased the intralumenal pressure in the pylorus and then decreased it whereas the pressure in the duodenum and the antrum remained depressed throughout the test
peak inhibitory effect, percent change over control for total protein (pancreatic secretion; 0.2 μg/kg-hr for one hour, pancreatic secretion induced by secretin and cholecystokinin): -76%
dose of somatostatin giving corresponding inhibitory effect on pancreatic secretion (pancreatic secretion; analog at 0.2 μg/kg-hr): about 0.6 μg/kg-hr.
inhibition of growth hormone secretion over control (growth hormone secretion; 2 μg./rat subcutaneously): same effect on growth hormone secretion as somatostatin
inhibition of growth hormone secretion over control (growth hormone secretion; 50 μg./rat subcutaneously): 66%
minimal effective concentration for inhibiting glucagon and insulin secretion [2]: about 25 nanograms/kg./min.
